Data: EP4122499A1, “FIBROBLAST ACTIVATION PROTEIN INHIBITORS AND USE THEREOF” (3B Pharmaceuticals GmbH, priority 2021, dated 2023)

Key:
HEK-FAP cells = biological target: T1, HEK-FAP cells (Homo sapiens, UniProt Q12884); assay: LigandTracer assay with 111In-labeled compounds; assay type: binding; conditions: 111In-labeled compound
T1 construct: expressed in transfected cells; host or cells: HEK293
T1 sequence (Q12884 1-760): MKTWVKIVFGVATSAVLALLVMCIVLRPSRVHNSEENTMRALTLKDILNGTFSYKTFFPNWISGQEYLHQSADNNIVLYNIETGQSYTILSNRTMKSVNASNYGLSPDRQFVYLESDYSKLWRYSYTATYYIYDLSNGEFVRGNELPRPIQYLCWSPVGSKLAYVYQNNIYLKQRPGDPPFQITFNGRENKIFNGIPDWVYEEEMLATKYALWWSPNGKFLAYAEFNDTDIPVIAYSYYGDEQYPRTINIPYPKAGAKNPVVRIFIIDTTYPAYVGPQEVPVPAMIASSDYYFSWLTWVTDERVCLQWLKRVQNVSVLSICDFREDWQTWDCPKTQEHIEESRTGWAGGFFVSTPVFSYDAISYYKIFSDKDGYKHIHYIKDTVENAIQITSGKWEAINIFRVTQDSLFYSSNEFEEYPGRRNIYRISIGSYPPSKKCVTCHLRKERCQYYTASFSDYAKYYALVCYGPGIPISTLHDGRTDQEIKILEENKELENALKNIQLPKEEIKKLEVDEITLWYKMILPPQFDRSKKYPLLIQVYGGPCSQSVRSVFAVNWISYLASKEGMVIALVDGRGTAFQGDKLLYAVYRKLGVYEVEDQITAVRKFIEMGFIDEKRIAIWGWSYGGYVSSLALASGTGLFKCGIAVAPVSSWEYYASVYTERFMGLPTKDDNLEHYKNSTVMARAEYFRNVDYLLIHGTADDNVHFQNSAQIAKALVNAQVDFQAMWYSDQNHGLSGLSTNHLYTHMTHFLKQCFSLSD
Protocol: HEK293 cells (human embryonic kidney cells) were engineered to express the human FAP. […] Cell concentrations were adjusted to 3 x 10^5 mL^-1, and 3.000 µL of the suspension was dispensed into a poly-lysine-coated, clear cell dish (10cm). Approximately 24 hours after re-seeding, the medium was replaced by assay medium (Ham's medium with 20 mM HEPES) containing 1 % FCS. The dish was placed in the LigandTracer® device and a baseline measurement was obtained using the LigandTracer® Control software (version 2.4). […] To determine the dissociation rate (kd) the cells were washed and subsequently incubated with fresh assay medium for several hours. […] Table 14 Results of the LigandTracer® assay

[1] = biological target: T2, FAP-expressing human WI-38 fibroblasts (Homo sapiens, UniProt Q12884); assay: Competitive FACS binding assay (displacement of Cy5-labeled FAP inhibitor 3BP-2935); conditions: 3 nM Cy5-labeled 3BP-2935, 4°C, 1 hour
T2 construct: FAP-expressing human WI-38 fibroblasts (ECACC 90020107) were cultured in EMEM; host or cells: WI-38 human fibroblasts
T2 sequence (Q12884 1-760): T1 sequence (Q12884 1-760)
Protocol: In order to determine binding of compounds according to the present invention to FAP-expressing cells, a competitive FACS binding assay was established.
Cells were diluted in FACS buffer to a final concentration of 100.000 cells per ml and 200 µl of the cell suspension are transferred to a u-shaped non-binding 96-well plate (Greiner).
Cell were washed twice with FACS buffer (see above) and resuspended in 200 µl FACS buffer. Cells were analyzed in an Attune NxT flow cytometer (Thermo Fisher Scientific). Median fluorescence intensities (Cy5 channel) was calculated by Attune NxT software and plotted against test compound concentrations. Four parameter logistic (4PL) curve fitting and pIC50 calculations were performed using ActivityBase software.

Recombinant human DPP4 = biological target: T3, Recombinant human DPP4 (Homo sapiens, UniProt P27487); assay: DPP4 protease activity assay; assay type: biochemical; conditions: 20 µM GP-AMC substrate; for IC50: read-out: pIC50 (DPP4) (converted)
T3 construct: purchased R&D systems 9168-SE
T3 sequence (P27487 whole entry): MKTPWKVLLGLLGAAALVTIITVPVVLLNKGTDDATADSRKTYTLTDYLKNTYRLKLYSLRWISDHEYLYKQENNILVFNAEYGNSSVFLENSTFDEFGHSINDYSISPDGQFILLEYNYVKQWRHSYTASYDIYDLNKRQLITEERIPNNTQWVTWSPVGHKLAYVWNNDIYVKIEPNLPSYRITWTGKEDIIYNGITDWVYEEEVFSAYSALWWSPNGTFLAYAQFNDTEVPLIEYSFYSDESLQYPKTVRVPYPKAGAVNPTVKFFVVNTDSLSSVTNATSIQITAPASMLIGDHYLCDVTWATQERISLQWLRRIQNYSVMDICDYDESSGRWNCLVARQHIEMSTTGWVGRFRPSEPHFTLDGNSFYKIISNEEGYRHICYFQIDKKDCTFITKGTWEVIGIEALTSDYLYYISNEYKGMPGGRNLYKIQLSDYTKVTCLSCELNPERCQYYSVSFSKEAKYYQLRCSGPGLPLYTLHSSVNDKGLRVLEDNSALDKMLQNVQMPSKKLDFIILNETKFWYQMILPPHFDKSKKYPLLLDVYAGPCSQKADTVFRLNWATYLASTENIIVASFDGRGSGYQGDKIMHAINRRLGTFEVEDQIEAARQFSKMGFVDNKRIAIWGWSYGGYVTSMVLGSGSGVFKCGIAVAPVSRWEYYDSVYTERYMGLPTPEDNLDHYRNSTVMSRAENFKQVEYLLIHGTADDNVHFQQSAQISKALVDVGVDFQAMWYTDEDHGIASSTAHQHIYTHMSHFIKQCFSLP
Protocol: (§1) The PREP activity assay was performed using the FACS buffer (PBS including 1% FBS, Sigma-Aldrich, Cat# D8537). […] The DPP4 activity assay was performed in DPP assay buffer (25 mM Tris, pH 8.0).
(§2) Four parameter logistic (4PL) curve fitting and pIC50 calculations were performed using ActivityBase software.

recombinant human PREP = biological target: T4, recombinant human PREP (Homo sapiens, UniProt P48147); assay: PREP protease activity assay; assay type: biochemical; conditions: 50 µM Z-GP-AMC substrate
T4 construct: purchased R&D systems 4308-SE
T4 sequence (P48147 1-710): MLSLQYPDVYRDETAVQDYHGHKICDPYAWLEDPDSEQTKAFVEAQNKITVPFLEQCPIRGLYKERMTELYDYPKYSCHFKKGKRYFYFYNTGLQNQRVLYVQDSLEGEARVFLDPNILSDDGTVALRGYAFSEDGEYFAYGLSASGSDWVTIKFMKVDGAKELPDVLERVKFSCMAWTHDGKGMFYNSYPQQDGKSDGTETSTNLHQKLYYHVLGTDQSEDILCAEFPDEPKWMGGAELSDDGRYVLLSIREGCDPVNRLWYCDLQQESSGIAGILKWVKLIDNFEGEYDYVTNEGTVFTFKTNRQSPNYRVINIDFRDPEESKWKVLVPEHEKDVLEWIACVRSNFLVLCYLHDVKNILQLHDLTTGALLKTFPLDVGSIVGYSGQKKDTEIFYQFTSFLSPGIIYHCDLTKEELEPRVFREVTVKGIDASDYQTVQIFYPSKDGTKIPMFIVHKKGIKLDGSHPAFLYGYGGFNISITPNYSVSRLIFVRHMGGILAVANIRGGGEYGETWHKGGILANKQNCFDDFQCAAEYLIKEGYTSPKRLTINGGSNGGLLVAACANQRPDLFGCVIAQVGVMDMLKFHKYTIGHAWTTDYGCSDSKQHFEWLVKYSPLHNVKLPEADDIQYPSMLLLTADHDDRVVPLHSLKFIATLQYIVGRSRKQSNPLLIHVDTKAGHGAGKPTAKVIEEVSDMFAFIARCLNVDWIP
Protocol: as §1, §2

Human recombinant FAP [2] = biological target: T5, Human recombinant FAP (Homo sapiens, UniProt Q12884); assay: FRET-based FAP protease activity assay (human); assay type: biochemical; set-up: purchased R&D systems 3715-SE; conditions: FRET-peptide substrate, 37°C; for IC50: read-out: pIC50 (Activity) (converted)
T5 sequence (Q12884 1-760): T1 sequence (Q12884 1-760)
Protocol: (§3) In order to determine the inhibitory activity a FRET-based FAP protease activity assay was established.
25 µL of a 30 µM substrate solution, diluted in assay buffer, was added. […] Four parameter logistic (4PL) curve fitting and pIC50 calculations were performed using ActivityBase software (IDBS).

Recombinant mouse FAP = biological target: T6, Recombinant mouse FAP (Mus musculus, UniProt P97321); assay: FRET-based FAP protease activity assay (mouse); assay type: biochemical; conditions: FRET-peptide substrate, 37°C
T6 construct: purchased R&D systems 8647-SE
T6 sequence (P97321 1-761): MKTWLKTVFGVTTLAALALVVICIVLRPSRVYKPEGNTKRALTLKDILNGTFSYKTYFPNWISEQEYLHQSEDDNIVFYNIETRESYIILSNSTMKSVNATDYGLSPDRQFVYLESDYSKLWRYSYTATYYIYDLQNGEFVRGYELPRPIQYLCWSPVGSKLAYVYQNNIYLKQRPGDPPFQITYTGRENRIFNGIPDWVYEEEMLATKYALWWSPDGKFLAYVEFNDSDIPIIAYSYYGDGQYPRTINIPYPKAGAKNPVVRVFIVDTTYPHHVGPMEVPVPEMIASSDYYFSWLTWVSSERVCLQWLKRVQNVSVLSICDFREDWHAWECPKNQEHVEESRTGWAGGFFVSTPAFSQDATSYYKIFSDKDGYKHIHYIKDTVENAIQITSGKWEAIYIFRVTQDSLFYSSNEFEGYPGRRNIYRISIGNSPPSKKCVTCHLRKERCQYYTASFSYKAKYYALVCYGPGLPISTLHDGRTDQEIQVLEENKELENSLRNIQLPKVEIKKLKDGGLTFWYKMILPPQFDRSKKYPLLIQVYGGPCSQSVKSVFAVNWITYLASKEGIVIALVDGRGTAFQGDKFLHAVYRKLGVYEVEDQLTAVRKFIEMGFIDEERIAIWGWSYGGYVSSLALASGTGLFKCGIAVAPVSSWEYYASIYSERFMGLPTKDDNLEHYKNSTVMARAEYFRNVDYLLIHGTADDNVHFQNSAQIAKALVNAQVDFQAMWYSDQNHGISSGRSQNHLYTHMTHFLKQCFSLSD
Protocol: as §3
25 µL of a 30 µM substrate solution, diluted in assay buffer, was added. […] Four parameter logistic (4PL) curve fitting and pIC50 calculations were performed using ActivityBase software.

Human recombinant FAP [3] = biological target: T5, Human recombinant FAP; assay: Surface plasmon resonance assay (Biacore T200, single cycle kinetics); assay type: binding; conditions: SPR, 25°C
Protocol: Surface plasmon resonance studies were performed using a Biacore™ T200 SPR system (Cytiva, formerly GE Healthcare). Briefly, polarized light is directed towards a gold-labeled sensor surface, and minimum intensity reflected light is detected. The angle of reflected light changes as molecules bind and dissociate. […] Test compounds are contacted with the loaded surface, and a real-time interaction profile with the FAP ligand is recorded in a sensorgram. In real-time, the association and dissociation of a binding interaction is measured, enabling calculation of association and dissociation rate constants and the corresponding affinity constants. Importantly, a background response is generated due to the difference in the refractive indices of the running and sample buffers, as well as unspecific binding of the test compounds to the flow cell surface. This background is measured and subtracted by running the sample on a control flow cell coated with the same density of capture antibody in the absence of immobilized FAP. Furthermore, baseline drift correction of the binding data is performed, which is caused by slow dissociation of the captured FAP from the immobilized antibody. This drift is measured by injecting running buffer through a flow cell with the antibody and FAP immobilized to the sensor surface.
Biacore™ CM5 sensor chips were used. […] A 150 µL aliquot was transferred into plastic vials and placed into the sample rack of the Biacore™ T200 instrument. Amine Coupling Kit Reagent solutions were transferred into plastic vials and placed into the sample rack: 90 µL of 0.4 M 1-ethyl-3-(3-dimethylaminopropyl)carbodiimide (EDC), and 90 µL of 0.1 M N-hydroxysuccinimide (NHS). A 130 µL aliquot of 1 M ethanolamine-HCl, pH 8.5, was transferred into plastic vials and placed into the sample rack. The Biacore™ liquid system was set-up as follows: Separate bottles containing distilled water (1 L), Running Buffer (500 mL), as well as an empty bottle for waste were placed onto the buffer tray. A preinstalled program for immobilization was used, with an immobilization level of 7000 RU. Immobilization was performed at 25°C. The immobilization procedure of anti-FAP antibodies was performed, as described in the Table 5. Table 5: Immobilization protocol for anti-FAP antibodies used on the CM5 sensor chip.
Human recombinant FAP was diluted in Running Buffer to a final concentration of 20 µg/mL. A 100 µL aliquot of human FAP-Working-Solution was transferred into plastic vials and placed into a sample rack. A 0.5 mM Compound-Stock-Solution was prepared by dissolving each compound in DMSO. For each test compound, Compound-Stock-Solutions were diluted in Running Buffer (HBST) at 500 nM and further diluted with HBST-DMSO Buffer (0.1% DMSO). SPR binding analyses for binary complexes were performed in SCK mode at 25°C. Following three SCK measurements, a baseline drift was assessed by injecting running buffer through a flow cell, with the antibody and FAP immobilized to the sensor surface. Table 6: Protocol for assessing the binding kinetics.
For each test compound, SPR raw data in the form of resonance units (RU) were plotted as sensorgrams using the Biacore™ T200 control software. The signal from the blank sensorgram was subtracted from that of the test compound sensorgram (blank corrected). The blank corrected sensorgram was corrected for baseline drift by subtracting the sensorgram of a SCK run without the test compound (running buffer only). The association rate (kon), dissociation rate (koff), dissociation constant (KD), and t1/2 were calculated from Blank-normalized SPR data using the 1:1 Langmuir binding model from the Biacore™ T200 evaluation software. Raw data and fit results were imported as text files in IDBS. The pKD value (negative decadic logarithm of dissociation constant) was calculated in the IDBS excel template.

Row | SMILES | IC50 [1] [nM] | IC50 (Recombinant human DPP4) [nM] | IC50 (recombinant human PREP) [nM] | IC50 (Human recombinant FAP [2]) [nM] | also measured
1 | O=C(O)CN1CCN(CC(=O)O)CCN(CC(=O)N2CCN(CCNC(=O)c3ccc(-c4ccc5nccc(C(=O)NCC(=O)N6C[C@@H](F)C[C@H]6C(=O)c6nc7ccccc7o6)c5c4)cc3)CC2)CCN(CC(=O)O)CC1 [Compound 3BP-4810] |  |  |  |  | HL (HEK-FAP cells): 38 ± 4 min; pKD (HEK-FAP cells): 8.5 ± 0.1
2 | N#C[C@@H]1CCCN1C(=O)CNC(=O)c1ccnc2cc(-c3ccc(C(=O)O)cc3)ccc12 | 3.98 | > 1000 | > 1000 | 2 | 
3 | N#C[C@@H]1CCCN1C(=O)CNC(=O)c1cc[n+]([O-])c2ccccc12 |  |  |  |  | pIC50 (FACS) [1]: 7.1; pIC50 (mouseFAP) (Recombinant mouse FAP): 7.5; pIC50 (DPP4) (Recombinant human DPP4): <6; pIC50 (PREP) (recombinant human PREP): 6.3; pIC50 (Activity) (Human recombinant FAP [2]): 7.6
4 | N#C[C@@H]1CCCN1C(=O)CNC(=O)c1ccnc2ccc(-c3cccc(C(=O)O)c3)cc12 | 3.16 | > 1000 | > 1000 | 1.58 | 
5 | N#C[C@@H]1CCCN1C(=O)CNC(=O)c1ccnc2cc(-c3cccc(C(=O)O)c3)ccc12 | 2.51 | > 1000 | > 1000 | 1.58 | 
6 | CS(=O)(=O)c1ccc(-c2ccc3c(C(=O)NCC(=O)N4CC(F)(F)C[C@H]4C#N)ccnc3c2)cc1 |  |  |  |  | pIC50 (FACS) [1]: 8.5; pKD (Biacore) (Human recombinant FAP [3]; 1:1 Langmuir binding model): 10; HL [min] (Biacore) (Human recombinant FAP [3]; half-life): 37 min; pIC50 (DPP4) (Recombinant human DPP4): <6; pIC50 (PREP) (recombinant human PREP): <6; pIC50 (Activity) (Human recombinant FAP [2]): 9.1
7 | Cc1nc(C(=O)[C@@H]2CCCN2C(=O)CNC(=O)c2ccnc3ccccc23)no1 | 251 |  | 1.26 | 79.4 | IC50 (Recombinant mouse FAP; read-out: pIC50 (mouseFAP) (converted)): 126 nM
